Key:
[1] = Ketone blood concentration after ingestion of 1,3-butanediol (FIG. 2, FIG. 3); format: in vivo, person; details: for increase in ketones over pre consumption ketone levels: one person (D), two people racemic
Excerpt: FIG. 2 depicts an exemplary ketone blood concentration after ingestion of racemic 1,3-butanediol.
FIG. 3 depicts a ketone blood concentration after one person ingested (D) 1,3-butanediol, compared to the results of two people ingesting racemic 1,3-butanediol.
It should also be noted that only the D enantiomer is active in the body as a source of extracellular fuel that is then transported into the cells. Ketone blood level meters currently on the market only measure the blood level of the D enantiomer. Products containing racemic salts require two to three times the amount of sodium, calcium and potassium for an equal amount of D-β-hydroxybutyrate readings in the blood. A reason the potential levels of D-β-hydroxybutyrate in the blood is over double with chiral solutions is because the body has to waste energy and uses up some of the D-β-hydroxybutyrate to burn off the unnatural L-O-hydroxybutyrate.
FIG. 2 depicts exemplary results from ingestion of 33 ml racemic 1,3-butanediol. […] For example, as shown, the chiral form provided an increase in ketones of approximately 3.2 mmol/L whereas the racemic form provided approximately 0.9-1.0 mmol/L increases over pre consumption ketone levels.

[2] = cited from earlier work

Structure (SMILES): CC(O)CCO (racemic) [racemic 1,3-butanediol, 1,3-butanediol]
- increase in ketones over pre consumption ketone levels ([1]; ingestion of 33 ml, FIG. 3): 0.9 to 1.0 mmol/L
- ketone blood concentration achieved ([1]; ingestion of 33 ml, over a 105-minute period, FIG. 2): ≤ 1 mmol/L

Structure (SMILES): CC(O)CC(=O)[O-].[Na+] (racemic) [racemic sodium β-hydroxybutyrate, sodium β-hydroxybutyrate]
- ketones level a person would be limited to ([2]; consuming at about 100-200% of the RDA for sodium): approximately 0.5 mmol/L

Structure (SMILES): CC(O)CCO (stereo not drawn) [(D)-1,3-butanediol]
- D-β-hydroxybutyrate in the blood, (D) relative to racemic 1,3-butanediol ([1]; 33 ml of each, FIG. 3): over double
- increase in ketones over pre consumption ketone levels ([1]; ingestion of 33 ml, FIG. 3): approximately 3.2 mmol/L

Structure (SMILES): CC(O)CC(=O)[O-].[K+] (racemic) [racemic potassium β-hydroxybutyrate, potassium β-hydroxybutyrate]
- ketones level a person would be limited to reaching ([2]; consuming at about 100% of potassium's RDA): approximately 0.5 mmol/L

From patent US20180055797A1, “NON-RACEMIC KETONE SALTS FOR RAPID-ONSET NUTRITIONAL KETOSIS AND METABOLIC THERAPY” (KetoneAid Inc., priority 2016, published 2018)
